# In patent US6794386B2, “β-amino acid compounds as integrin antagonists” (Bayer Aktiengesellschaft, priority 2000, dated 2004):
# pIC50: −log10 of the molar value.
# Target: T1, VLA-4 (Homo sapiens, UniProt P05556+P13612)
# T1 construct: host or cells: Jurkat clone E6-1
# Experiment: Adhesion of Jurkat cells to immobilized VCAM-1 (domains 1-3)
# Assay type: cell-based
# Design: scale not given here
# Settings: adhesion of CFSE-labeled Jurkat cells to recombinant human VCAM-1 (domains 1-3) coated plates; compounds as yielded by solid phase synthesis, purity about 40-90%
# Method in brief: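 CFSE-labelled Jurkat E6-1 cells in Tris buffer pH 7.4 with 2 mM MnCl2 were added to wells coated with insect-cell-expressed human VCAM-1 domains 1-3 (0.5 μg/ml coating solution); labelled cells were incubated for 30 min at 37 °C with the VLA-4 inhibitor.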
# T1 sequence (P13612 34-1032): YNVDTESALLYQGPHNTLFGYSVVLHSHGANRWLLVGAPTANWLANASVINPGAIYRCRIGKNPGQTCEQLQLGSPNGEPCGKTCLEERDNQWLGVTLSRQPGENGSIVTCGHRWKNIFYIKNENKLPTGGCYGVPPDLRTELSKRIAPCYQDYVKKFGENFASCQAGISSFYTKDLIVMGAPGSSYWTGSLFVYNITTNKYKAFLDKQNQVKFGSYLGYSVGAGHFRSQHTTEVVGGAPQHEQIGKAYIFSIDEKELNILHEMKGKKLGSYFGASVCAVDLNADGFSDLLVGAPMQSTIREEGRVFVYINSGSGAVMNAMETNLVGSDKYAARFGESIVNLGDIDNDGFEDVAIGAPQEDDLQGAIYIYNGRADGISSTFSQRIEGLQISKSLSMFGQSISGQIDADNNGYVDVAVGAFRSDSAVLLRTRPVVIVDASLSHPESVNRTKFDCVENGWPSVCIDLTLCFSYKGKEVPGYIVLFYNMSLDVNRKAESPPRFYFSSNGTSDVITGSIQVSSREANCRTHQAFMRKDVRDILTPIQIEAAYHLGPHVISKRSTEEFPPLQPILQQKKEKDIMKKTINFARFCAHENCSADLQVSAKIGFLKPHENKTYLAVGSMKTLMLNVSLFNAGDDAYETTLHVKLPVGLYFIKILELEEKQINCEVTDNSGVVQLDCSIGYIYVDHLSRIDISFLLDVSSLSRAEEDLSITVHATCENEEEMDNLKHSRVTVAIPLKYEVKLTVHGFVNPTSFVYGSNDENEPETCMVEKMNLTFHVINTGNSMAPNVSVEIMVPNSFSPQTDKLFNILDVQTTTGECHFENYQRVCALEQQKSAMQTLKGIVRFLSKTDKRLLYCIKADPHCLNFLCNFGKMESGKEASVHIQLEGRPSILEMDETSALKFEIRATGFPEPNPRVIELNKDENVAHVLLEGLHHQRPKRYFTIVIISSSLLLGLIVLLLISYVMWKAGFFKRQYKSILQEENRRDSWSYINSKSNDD
# T1 sequence (P05556 21-798): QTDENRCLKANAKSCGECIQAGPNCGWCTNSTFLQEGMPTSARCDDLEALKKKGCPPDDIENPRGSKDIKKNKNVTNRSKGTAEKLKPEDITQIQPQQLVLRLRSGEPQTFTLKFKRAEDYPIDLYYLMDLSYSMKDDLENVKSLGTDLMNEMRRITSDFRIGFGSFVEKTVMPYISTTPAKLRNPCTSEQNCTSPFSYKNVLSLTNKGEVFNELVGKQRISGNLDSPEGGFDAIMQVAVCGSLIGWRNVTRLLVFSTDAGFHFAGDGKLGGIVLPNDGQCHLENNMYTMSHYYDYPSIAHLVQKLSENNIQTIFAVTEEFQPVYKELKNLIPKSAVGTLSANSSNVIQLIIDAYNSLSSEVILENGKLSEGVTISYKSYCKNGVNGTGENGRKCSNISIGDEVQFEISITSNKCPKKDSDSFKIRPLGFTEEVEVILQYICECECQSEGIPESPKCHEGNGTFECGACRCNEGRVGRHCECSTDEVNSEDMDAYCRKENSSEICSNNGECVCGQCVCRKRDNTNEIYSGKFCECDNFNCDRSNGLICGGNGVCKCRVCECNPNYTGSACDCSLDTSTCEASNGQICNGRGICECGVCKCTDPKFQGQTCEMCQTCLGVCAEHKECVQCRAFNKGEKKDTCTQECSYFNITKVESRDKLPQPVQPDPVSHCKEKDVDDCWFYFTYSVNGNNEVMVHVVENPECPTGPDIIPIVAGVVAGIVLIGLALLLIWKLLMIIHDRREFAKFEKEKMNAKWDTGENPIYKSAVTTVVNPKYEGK
row,IC50,SMILES
1,C-D,O=C(N[C@@H](Cc1ccc(-c2ccc(Cl)cc2Cl)cc1)C(=O)O)C1CCCN(C(=O)c2ccc3c(c2)OCO3)C1 (stereo partly shown) [Example 1.43]
2,C-D,Cc1ccccc1-c1ccc(C[C@H](NC(=O)C2CCCN(c3ncnc(NC4CCCCC4)c3F)C2)C(=O)O)cc1 (stereo partly shown) [Example 2.25]
3,C-D,Cc1ccc(S(=O)(=O)N2CCCC(C(=O)N[C@@H](Cc3ccc(-c4ccc(Cl)cc4Cl)cc3)C(=O)O)C2)cc1 (stereo partly shown) [Example 1.94]
4,C-D,Cc1cc(Cl)c(CC(=O)N2CCCC(C(=O)N[C@@H](Cc3ccc(-c4ccc(Cl)cc4Cl)cc3)C(=O)O)C2)c(Cl)c1 (stereo partly shown) [Example 1.45]
5,C-D,Cc1ccccc1-c1ccc(C[C@H](NC(=O)C2CCCN(S(=O)(=O)Cc3ccccc3)C2)C(=O)O)cc1 (stereo partly shown) [Example 1.91]
6,C-D,COc1ccc(Cl)cc1S(=O)(=O)N1CCCC(C(=O)N[C@@H](Cc2ccc(-c3ccccc3)cc2)C(=O)O)C1 (stereo partly shown) [Example 1.62]
7,C-D,Cc1ccccc1-c1ccc(C[C@H](NC(=O)C2CCCN(C(=O)c3ccccc3Cl)C2)C(=O)O)cc1 (stereo partly shown) [Example 1.36]
8,C-D,Cc1ccc(-c2ccc(C[C@H](NC(=O)C3CCCN(c4ncnc(NC5Cc6ccccc6C5)c4F)C3)C(=O)O)cc2)cc1 (stereo partly shown) [Example 2.11]
9,C-D,Cc1cc(C)c(OC(=O)N2CCCC(C(=O)N[C@@H](Cc3ccc(-c4ccccc4C)cc3)C(=O)O)C2)c(C)c1 (stereo partly shown) [Example 1.38]
10,C-D,Cc1ccc(C(=O)N2CCCC(C(=O)N[C@@H](Cc3ccc(-c4ccc(C)cc4)cc3)C(=O)O)C2)cc1 (stereo partly shown) [Example 1.19]
11,C-D,O=C(N[C@@H](Cc1ccc(-c2ccccc2)cc1)C(=O)O)C1CCCN(S(=O)(=O)Cc2ccccc2)C1 (stereo partly shown) [Example 1.63]
12,C-D,Cc1ccc(-c2ccc(C[C@H](NC(=O)C3CCCN(S(=O)(=O)c4c(Cl)cccc4Cl)C3)C(=O)O)cc2)cc1 (stereo partly shown) [Example 1.69]
13,C-D,COc1ccc(-c2ccc(C[C@H](NC(=O)C3CCCN(c4ncnc(N(C)Cc5ccccc5)c4F)C3)C(=O)O)cc2)cc1 (stereo partly shown) [Example 2.18]
14,C-D,COc1ccc(-c2ccc(C[C@H](NC(=O)C3CCCN(S(=O)(=O)c4cc(Cl)cc(Cl)c4)C3)C(=O)O)cc2)cc1 (stereo partly shown) [Example 1.83]

# Same assay, conditions: adhesion of CFSE-labeled Jurkat cells to recombinant human VCAM-1 (domains 1-3) coated plates; compounds as yielded by solid phase synthesis, purity about 40-90%; read-out: IC50
row,SMILES,pIC50
1,O=C(N[C@@H](Cc1ccc(-c2cc(Cl)ccc2Cl)cc1)C(=O)O)C1CCCN(S(=O)(=O)Cc2ccccc2)C1 (stereo partly shown) [Example 1.6],≥ 6.30
2,O=C(N[C@@H](Cc1ccc(-c2ccccc2)cc1)C(=O)O)C1CCCN(C(=O)OC2CCCC2)C1 (stereo partly shown) [Example 1.16],5.00 to 5.70
3,CCCNc1ncnc(N2CCCC(C(=O)N[C@@H](Cc3ccc(-c4ccccc4OC)cc3)C(=O)O)C2)c1F (stereo partly shown) [Example 2.55],≥ 6.30
4,COc1ccccc1-c1ccc(C[C@H](NC(=O)C2CCCN(c3ncnc(N4CCNCC4)c3F)C2)C(=O)O)cc1 (stereo partly shown) [Example 2.54],≥ 6.30
5,Cc1ccc(S(=O)(=O)N2CCCC(C(=O)N[C@@H](Cc3ccc(-c4cc(Cl)ccc4Cl)cc3)C(=O)O)C2)cc1 (stereo partly shown) [Example 1.104],≥ 6.30

# Continued, values first:
row,pIC50,SMILES
1,5.70 to 6.30,COc1ccccc1NC(=O)N1CCCC(C(=O)N[C@H](Cc2ccc(NC(=O)N3CCN(c4ccccc4)CC3)cc2)C(=O)O)C1 (stereo partly shown) [Example 4.55]
2,≥ 6.30,COc1ccccc1C(=O)N1CCCC(C(=O)N[C@@H](Cc2ccc(NC(=O)N3CCc4ccccc4C3)cc2)C(=O)O)C1 (stereo partly shown) [Example 4.27]
3,5.70 to 6.30,COc1ccc(S(=O)(=O)N2CCCC(C(=O)N[C@@H](Cc3ccc(NC(=O)N4CCN(C(c5ccccc5)c5ccccc5)CC4)cc3)C(=O)O)C2)cc1OC (stereo partly shown) [Example 4.45]
4,5.70 to 6.30,O=C(N[C@@H](Cc1ccc(NC(=O)N2CCc3ccccc3C2)cc1)C(=O)O)C1CCCN(C(=O)C2CCCCC2)C1 (stereo partly shown) [Example 4.53]
5,≥ 6.30,COc1ccccc1C(=O)N1CCCC(C(=O)N[C@@H](Cc2ccc(NC(=O)N3CCCCC3)cc2)C(=O)O)C1 (stereo partly shown) [Example 4.12]
6,5.70 to 6.30,CN1CCN(c2ncnc(N3CCCC(C(=O)N[C@@H](Cc4ccc(NC(=O)N5CCc6ccccc6C5)cc4)C(=O)O)C3)c2F)CC1 (stereo partly shown) [Example 5.40]
7,≥ 6.30,O=C(N[C@@H](Cc1ccc(NC(=O)N2CCOCC2)cc1)C(=O)O)C1CCCN(S(=O)(=O)c2cccs2)C1 (stereo partly shown) [Example 4.42]
8,5.00 to 5.70,O=C(N[C@@H](Cc1ccc(NC(=O)N2CCCCC2)cc1)C(=O)O)C1CCCN(C(=O)c2ccc(OC(F)(F)F)cc2)C1 (stereo partly shown) [Example 4.4]
9,5.70 to 6.30,O=C(N[C@@H](Cc1ccc(NC(=O)N2CCN(c3ccccc3)CC2)cc1)C(=O)O)C1CCCN(c2ncnc(NCCc3ccccn3)c2F)C1 (stereo partly shown) [Example 5.39]
10,≥ 6.30,COc1ccccc1C(=O)N1CCCC(C(=O)N[C@@H](Cc2ccc(NC(=O)N3CCN(c4ccccc4)CC3)cc2)C(=O)O)C1 (stereo partly shown) [Example 4.14]
11,5.70 to 6.30,CN(c1ncnc(N2CCCC(C(=O)N[C@@H](Cc3ccc(NC(=O)N4CCN(c5ccccc5)CC4)cc3)C(=O)O)C2)c1F)C1CCCCC1 (stereo partly shown) [Example 5.43]
12,5.00 to 5.70,COc1ccccc1-c1ccc(C[C@H](NC(=O)C2CCCN(c3ncnc(NCCc4c[nH]cn4)c3F)C2)C(=O)O)cc1 (stereo partly shown) [Example 5.3]
